Paper PMC10244169, “Psychedelics promote plasticity by directly binding to BDNF receptor TrkB” (Nature Neuroscience, 2023)

Columns and labels:
[1] = target: T1, TrkB (Rattus norvegicus, UniProt Q63604); assay: biochemical; format: binding
T1 construct: expressed in transfected cells; host or cells: HEK293T

[2] = test system: spine density of neuronal cultures; assay: Spinogenesis in mature neuronal cultures (WT and Y433F^+/−); format: cell-based, mouse; design: 6d: Mean (spinogenesis, spine density) / 6e: Mean (spinogenesis, spine density): unit not given here
Experimental: Spinogenesis experiments were performed similarly to previous studies[12],[13] with modifications. […] In a separate set of experiments to study the effects of extracellular BDNF and 5-HT2A activation, cultures were also pretreated for 10 min with TrkB.FC (200 ng ml^−1) or M100907 (100 nM), respectively. TrkB.FC and M100907 remained in the medium for the rest of the experiment. Twenty-four hours later, coverslips were fixed with 4% PFA, washed with PBS, incubated with blocking buffer (0.1% Triton X-100, 0.05% Tween-20, 10% normal donkey serum, 1% BSA and 0.1% gelatin in PBS) for 1 h at room temperature and then overnight with rabbit anti-MAP2 (Invitrogen, PA5-17646; 1:100) primary antibody at 4 °C. After washing with PBS, coverslips were incubated with CF568-conjugated donkey anti-rabbit (Biotium, 20098; 1:500) for 1 h at room temperature. Another round of PBS washes was followed by incubation with Alexa Fluor 647-conjugated phalloidin (Invitrogen, A22287; 1:40) overnight at 4 °C. Next, coverslips were briefly washed in phosphate buffer (PB) and mounted on slides with ProLong Glass Antifade Mountant (Invitrogen, P36982). We used a Zeiss LSM 880 confocal microscope with an AiryScan GaAsP detector equipped with a PlanApochromat 63×/1.4 NA objective. We used the BP 495–550 + LP 570 AiryScan filter and Zen Black in super-resolution mode for image acquisition. Pinhole size was adapted accordingly, and frame size was set to optimal. Sensors were set to continuous adjustment across the imaging sessions to ensure optimal sensor alignment and signal detection. Raw data were processed into AiryScan images with the autofilter mode on using Zen Blue. Finally, image analysis was performed in ImageJ by experimenters blinded for treatment and genotype. Spines were quantified in 15-µm-long dendrite sections.

[3] = test system: dendritic arbor complexity of neuronal cultures; assay: Dendritogenesis (Sholl analysis) in neuronal cultures (WT and Y433F^+/−); format: cell-based, mouse; conditions: for Sholl analysis, Mean at distance from soma: fig 6h
In short: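 Some cultures were pretreated 10 min with TrkB.FC (200 ng ml^−1) or M100907 (100 nM), which stayed in the medium alongside cumulative psychedelic doses. Sholl analysis counted dendritic intersections every 5 μm from the soma.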

[4] = Y433F+/-:vehicle minus Y433F+/-:treatment

T1 sequence (Q63604 32-821): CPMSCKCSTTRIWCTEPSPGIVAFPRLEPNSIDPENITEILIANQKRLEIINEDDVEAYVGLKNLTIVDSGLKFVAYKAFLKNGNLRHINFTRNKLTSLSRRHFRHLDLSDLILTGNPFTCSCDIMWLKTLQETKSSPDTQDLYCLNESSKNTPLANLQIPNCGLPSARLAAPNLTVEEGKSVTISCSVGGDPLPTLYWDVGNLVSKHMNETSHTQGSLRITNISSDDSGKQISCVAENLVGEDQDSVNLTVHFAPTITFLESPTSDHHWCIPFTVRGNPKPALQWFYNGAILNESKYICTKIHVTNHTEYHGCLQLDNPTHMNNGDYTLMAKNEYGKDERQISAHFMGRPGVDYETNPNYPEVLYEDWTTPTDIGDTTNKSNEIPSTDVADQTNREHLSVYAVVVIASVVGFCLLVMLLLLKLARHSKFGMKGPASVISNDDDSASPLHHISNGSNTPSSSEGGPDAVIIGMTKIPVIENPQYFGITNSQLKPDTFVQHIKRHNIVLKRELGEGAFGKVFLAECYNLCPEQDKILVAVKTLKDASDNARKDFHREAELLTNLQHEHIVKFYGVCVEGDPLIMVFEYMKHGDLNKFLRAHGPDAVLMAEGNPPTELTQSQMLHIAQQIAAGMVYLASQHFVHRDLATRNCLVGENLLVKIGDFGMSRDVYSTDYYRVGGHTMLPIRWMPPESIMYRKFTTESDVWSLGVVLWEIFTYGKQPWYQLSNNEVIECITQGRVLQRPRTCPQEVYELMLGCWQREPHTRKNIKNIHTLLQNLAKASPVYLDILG

## CN(C)CCc1c[nH]c2cccc(O)c12 [PSI, psilocin]
[1]
  Ki: 6.73 ± 3.05 nM
[1]; competition with ^3H-LSD
  Bmax (best-fit, 1b): 100.9
  h (best-fit, 1b): -0.492
[1]; higher than other antidepressants
  affinity to TrkB relative to other antidepressants (fluoxetine, ketamine): 1,000 fold
[2]; WT neurons, vehicle mean 5.7
  6d: Mean (spinogenesis, spine density): 10.5
[2]; WT:vehicle minus WT:treatment
  6d: Mean Diff. (vehicle vs. treatment), Bonferroni's multiple comparisons test: -4.8
[2]; Y433F+/- neurons, vehicle mean 6.55
  6d: Mean (spinogenesis, spine density): 7
[2]; [4]
  6d: Mean Diff. (vehicle vs. treatment), Bonferroni's multiple comparisons test: -0.45
[2]; cultures from WT mice, 24 h, 100 nM
  spine density: increase spine density
[3]; WT neurons, vehicle mean 32.96
  6g: Mean (dendritogenesis, Sholl analysis): 62.5
[3]; WT:vehicle minus WT:treatment
  6g: Mean Diff. (vehicle vs. treatment), Bonferroni's multiple comparisons test: -29.54
[3]; Y433F+/- neurons, vehicle mean 44.44
  6g: Mean (dendritogenesis, Sholl analysis): 31.05
[3]; [4]
  6g: Mean Diff. (vehicle vs. treatment), Bonferroni's multiple comparisons test: 13.39
[3]; cultures from WT mice
  dendritic arbor complexity: enhance dendritic arbor complexity
[3]; cultures from Y433F^+/− mice
  dendritic arbor complexity: not Y433F^+/− mice
[3]; distance from soma 25 µm
  Sholl analysis, Mean at distance from soma: 3.05
[3]; distance from soma 30 µm
  Sholl analysis, Mean at distance from soma: 2.75
[3]; distance from soma 35 µm
  Sholl analysis, Mean at distance from soma: 2.15
[3]; distance from soma 40 µm
  Sholl analysis, Mean at distance from soma: 1.55
[3]; distance from soma 45 µm
  Sholl analysis, Mean at distance from soma: 1.35
[3]; distance from soma 50 µm
  Sholl analysis, Mean at distance from soma: 1.3
[3]; distance from soma 55 µm
  Sholl analysis, Mean at distance from soma: 0.95
[3]; distance from soma 60 µm
  Sholl analysis, Mean at distance from soma: 0.8
[3]; distance from soma 65 µm
  Sholl analysis, Mean at distance from soma: 0.75
[3]; distance from soma 70 µm
  Sholl analysis, Mean at distance from soma: 0.7
[3]; distance from soma 75 µm
  Sholl analysis, Mean at distance from soma: 0.55
[3]; distance from soma 80 µm
  Sholl analysis, Mean at distance from soma: 0.45
[3]; distance from soma 85 µm
  Sholl analysis, Mean at distance from soma: 0.45
[3]; distance from soma 90 µm
  Sholl analysis, Mean at distance from soma: 0.4
[3]; distance from soma 95 µm
  Sholl analysis, Mean at distance from soma: 0.65
[3]; distance from soma 100 µm
  Sholl analysis, Mean at distance from soma: 0.55
[3]; first 6h table (N as WT), distance from soma 10 µm
  6h: Mean (Sholl analysis): 6
[3]; first 6h table (N as WT), distance from soma 15 µm
  6h: Mean (Sholl analysis): 7.15
[3]; first 6h table (N as WT), distance from soma 20 µm
  6h: Mean (Sholl analysis): 7.85
[3]; first 6h table (N as WT), distance from soma 25 µm
  6h: Mean (Sholl analysis): 6.65
[3]; first 6h table (N as WT), distance from soma 30 µm
  6h: Mean (Sholl analysis): 5.65
[3]; first 6h table (N as WT), distance from soma 35 µm
  6h: Mean (Sholl analysis): 4.5
[3]; first 6h table (N as WT), distance from soma 40 µm
  6h: Mean (Sholl analysis): 3.6
[3]; first 6h table (N as WT), distance from soma 45 µm
  6h: Mean (Sholl analysis): 2.75
[3]; first 6h table (N as WT), distance from soma 50 µm
  6h: Mean (Sholl analysis): 2.6
[3]; first 6h table (N as WT), distance from soma 55 µm
  6h: Mean (Sholl analysis): 2.5
[3]; first 6h table (N as WT), distance from soma 60 µm
  6h: Mean (Sholl analysis): 2.35
[3]; first 6h table (N as WT), distance from soma 65 µm
  6h: Mean (Sholl analysis): 1.75
[3]; first 6h table (N as WT), distance from soma 70 µm
  6h: Mean (Sholl analysis): 1.7
[3]; first 6h table (N as WT), distance from soma 75 µm
  6h: Mean (Sholl analysis): 1.35
[3]; first 6h table (N as WT), distance from soma 80 µm
  6h: Mean (Sholl analysis): 1.15
[3]; first 6h table (N as WT), distance from soma 85 µm
  6h: Mean (Sholl analysis): 1.1
[3]; first 6h table (N as WT), distance from soma 90 µm
  6h: Mean (Sholl analysis): 1.3
[3]; first 6h table (N as WT), distance from soma 95 µm
  6h: Mean (Sholl analysis): 1.05
[3]; first 6h table (N as WT), distance from soma 100 µm
  6h: Mean (Sholl analysis): 1.5
[3]; second 6h table (N as Y433F), distance from soma 10 µm
  6h: Mean (Sholl analysis): 4.8
[3]; second 6h table (N as Y433F), distance from soma 15 µm
  6h: Mean (Sholl analysis): 4.05
[3]; second 6h table (N as Y433F), distance from soma 20 µm
  6h: Mean (Sholl analysis): 3.8
